Read-outs that look alike come from different tables or passages of the source.

Common to all, as to experiment: biochemical
Parameters in all cases: Eurofins KinaseProfiler full panel at Km ATP, residual kinase activity (%) relative to DMSO

One test has as its target T1, A-Raf(h) (Homo sapiens, UniProt P10398).
T1 construct: gene ARAF
T1 sequence (P10398 1-606): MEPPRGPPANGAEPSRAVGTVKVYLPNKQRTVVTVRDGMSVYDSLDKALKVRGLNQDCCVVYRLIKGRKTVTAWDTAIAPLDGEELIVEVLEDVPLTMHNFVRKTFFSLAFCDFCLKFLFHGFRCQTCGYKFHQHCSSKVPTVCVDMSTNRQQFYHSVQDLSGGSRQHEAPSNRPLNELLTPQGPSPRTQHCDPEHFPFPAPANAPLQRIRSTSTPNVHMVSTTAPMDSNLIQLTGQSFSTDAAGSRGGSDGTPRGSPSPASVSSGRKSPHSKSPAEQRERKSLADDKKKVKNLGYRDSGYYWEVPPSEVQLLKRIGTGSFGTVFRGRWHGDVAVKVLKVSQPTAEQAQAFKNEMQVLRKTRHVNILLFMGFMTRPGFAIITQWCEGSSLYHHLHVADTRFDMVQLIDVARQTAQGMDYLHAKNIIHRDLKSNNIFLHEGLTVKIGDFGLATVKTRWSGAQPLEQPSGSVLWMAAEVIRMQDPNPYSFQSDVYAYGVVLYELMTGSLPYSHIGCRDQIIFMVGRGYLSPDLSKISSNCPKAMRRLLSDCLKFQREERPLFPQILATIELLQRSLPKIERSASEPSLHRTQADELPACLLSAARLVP
As to the method: (§1) Eurofins performed a “Full KP Panel [Km ATP], KinaseProfile” which contains 429 radiometric kinase activity assays. The remaining kinase activity (%) was determined after treatment with the compounds at a concentration of 10 µM (Cfr. supporting information). Since we could not confirm the interaction between Spautin-1 analogues and USP13, a kinase screening was performed using a set of four compounds (Spautin-1 and three analogues) to discover off-targets and identify kinases that are potentially responsible for the reduction in cell viability observed in our screen (Table 2). The KINOMEscan from Eurofins was performed (see Table S1). This screen consists of a competitive binding assay in which the DNA-tagged kinase is incubated with one of the compounds in the presence of immobilized active site binding ligands. Binding of the compounds to the kinase hampers the binding of the kinase to the ligands and this inhibition was quantified by qPCR. The residual kinase activity, which represents the percentage of kinase attached to the immobilized ligands, was determined for 428 kinases at a standard screening concentration of 10 µM of the compounds dissolved in DMSO [61].

For the next test, the target named is Blk(m) (Mus musculus, UniProt P16277). As to the method:
as §1

A further test deals with CDK7/cyclinH/MAT1(h) (Homo sapiens, UniProt P50613). Here is the method:
as §1

For the next test, the target named is T2, GCK(h) (Homo sapiens, UniProt Q12851).
T2 construct: gene MAP4K2
T2 sequence (Q12851 1-820): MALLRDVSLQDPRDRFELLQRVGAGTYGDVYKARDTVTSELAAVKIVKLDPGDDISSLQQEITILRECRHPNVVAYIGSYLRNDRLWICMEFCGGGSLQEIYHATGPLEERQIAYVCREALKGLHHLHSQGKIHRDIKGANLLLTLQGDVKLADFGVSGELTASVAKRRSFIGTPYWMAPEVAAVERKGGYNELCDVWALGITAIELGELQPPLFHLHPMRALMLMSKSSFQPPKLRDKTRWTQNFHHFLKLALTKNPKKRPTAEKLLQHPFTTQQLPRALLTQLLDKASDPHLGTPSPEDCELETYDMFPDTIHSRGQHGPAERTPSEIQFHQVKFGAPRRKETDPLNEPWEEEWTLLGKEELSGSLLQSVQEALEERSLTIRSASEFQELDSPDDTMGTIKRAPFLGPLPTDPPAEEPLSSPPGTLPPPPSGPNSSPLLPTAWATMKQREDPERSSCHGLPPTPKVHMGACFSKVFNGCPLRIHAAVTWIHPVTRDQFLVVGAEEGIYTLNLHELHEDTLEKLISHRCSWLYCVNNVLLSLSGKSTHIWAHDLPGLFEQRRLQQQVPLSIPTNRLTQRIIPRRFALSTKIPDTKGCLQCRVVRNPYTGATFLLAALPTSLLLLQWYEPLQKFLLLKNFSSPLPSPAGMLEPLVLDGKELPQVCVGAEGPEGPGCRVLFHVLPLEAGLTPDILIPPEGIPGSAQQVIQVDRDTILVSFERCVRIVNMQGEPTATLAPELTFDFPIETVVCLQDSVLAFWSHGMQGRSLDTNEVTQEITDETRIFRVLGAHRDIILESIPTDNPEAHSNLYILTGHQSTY
As to the method: as §1

A further test concerns the target T3, PI3 Kinase (p120g)(h) (Homo sapiens, UniProt P48736).
T3 construct: gene PIK3CG
Here is the method:
as §1

In the next test the target is T4, PhKγ1(h) (Homo sapiens, UniProt Q16816).
T4 construct: gene PHKG1
As to the method:
as §1

The mark [1] stands for this setting: read-out: Residual activity (%) 5at.
Setting [2] is: read-out: Residual activity (%) 5ay.
The mark [3] stands for this setting: read-out: Residual activity (%) 5as.
Where [4] appears, read: read-out: Residual activity (%) Spautin-1 5aa.

T3 sequence (P48736 whole entry): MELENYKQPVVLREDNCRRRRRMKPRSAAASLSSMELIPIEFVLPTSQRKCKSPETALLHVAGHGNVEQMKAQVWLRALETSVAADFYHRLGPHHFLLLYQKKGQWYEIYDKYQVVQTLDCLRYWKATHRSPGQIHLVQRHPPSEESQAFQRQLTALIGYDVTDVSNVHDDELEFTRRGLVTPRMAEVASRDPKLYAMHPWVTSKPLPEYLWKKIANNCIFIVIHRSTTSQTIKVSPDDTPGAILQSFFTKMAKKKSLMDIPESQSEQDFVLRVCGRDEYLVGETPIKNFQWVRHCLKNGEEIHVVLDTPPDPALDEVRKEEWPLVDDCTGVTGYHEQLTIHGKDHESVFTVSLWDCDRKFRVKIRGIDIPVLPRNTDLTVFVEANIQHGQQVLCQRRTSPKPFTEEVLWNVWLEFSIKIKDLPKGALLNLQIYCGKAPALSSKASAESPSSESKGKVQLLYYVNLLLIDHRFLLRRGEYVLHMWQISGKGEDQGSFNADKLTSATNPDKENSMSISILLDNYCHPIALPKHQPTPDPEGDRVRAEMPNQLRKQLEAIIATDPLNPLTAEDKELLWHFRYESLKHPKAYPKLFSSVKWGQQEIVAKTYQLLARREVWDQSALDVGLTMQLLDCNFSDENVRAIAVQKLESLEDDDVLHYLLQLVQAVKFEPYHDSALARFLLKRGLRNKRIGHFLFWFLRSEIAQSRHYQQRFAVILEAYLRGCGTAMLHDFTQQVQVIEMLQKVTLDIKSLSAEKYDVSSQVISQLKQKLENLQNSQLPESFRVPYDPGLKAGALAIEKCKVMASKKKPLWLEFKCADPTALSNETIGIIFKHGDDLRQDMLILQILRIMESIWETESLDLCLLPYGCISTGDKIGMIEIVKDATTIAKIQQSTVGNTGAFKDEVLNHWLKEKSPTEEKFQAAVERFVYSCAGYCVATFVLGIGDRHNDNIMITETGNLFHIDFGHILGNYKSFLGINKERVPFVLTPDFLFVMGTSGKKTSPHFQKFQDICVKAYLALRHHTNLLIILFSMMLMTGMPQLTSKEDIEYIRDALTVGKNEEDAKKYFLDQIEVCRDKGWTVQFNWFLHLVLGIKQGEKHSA
T4 sequence (Q16816 whole entry): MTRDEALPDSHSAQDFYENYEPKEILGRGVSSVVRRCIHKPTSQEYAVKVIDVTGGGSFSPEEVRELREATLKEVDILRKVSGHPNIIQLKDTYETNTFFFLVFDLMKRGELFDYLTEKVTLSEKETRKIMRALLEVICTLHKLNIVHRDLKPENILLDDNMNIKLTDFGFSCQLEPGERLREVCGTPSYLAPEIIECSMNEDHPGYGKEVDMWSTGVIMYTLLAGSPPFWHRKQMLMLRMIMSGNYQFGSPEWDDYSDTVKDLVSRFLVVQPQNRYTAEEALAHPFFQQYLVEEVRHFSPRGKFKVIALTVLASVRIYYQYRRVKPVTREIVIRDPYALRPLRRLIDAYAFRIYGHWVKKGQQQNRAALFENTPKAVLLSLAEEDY
Blk(m), sequence (P16277 whole entry): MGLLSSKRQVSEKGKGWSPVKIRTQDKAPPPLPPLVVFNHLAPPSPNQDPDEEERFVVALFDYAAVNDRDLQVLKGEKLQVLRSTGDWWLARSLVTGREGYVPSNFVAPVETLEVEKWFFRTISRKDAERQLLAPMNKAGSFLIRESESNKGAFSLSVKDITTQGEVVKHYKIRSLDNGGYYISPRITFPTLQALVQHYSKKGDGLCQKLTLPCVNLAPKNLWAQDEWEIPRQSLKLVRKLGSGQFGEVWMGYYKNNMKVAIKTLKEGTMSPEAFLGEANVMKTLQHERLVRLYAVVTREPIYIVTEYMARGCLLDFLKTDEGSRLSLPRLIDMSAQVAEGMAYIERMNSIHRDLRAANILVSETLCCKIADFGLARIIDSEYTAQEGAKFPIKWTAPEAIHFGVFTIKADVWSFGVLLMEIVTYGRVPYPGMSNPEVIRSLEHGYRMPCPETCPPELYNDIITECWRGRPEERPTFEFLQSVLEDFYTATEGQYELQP
CDK7/cyclinH/MAT1(h), sequence (P50613 whole entry): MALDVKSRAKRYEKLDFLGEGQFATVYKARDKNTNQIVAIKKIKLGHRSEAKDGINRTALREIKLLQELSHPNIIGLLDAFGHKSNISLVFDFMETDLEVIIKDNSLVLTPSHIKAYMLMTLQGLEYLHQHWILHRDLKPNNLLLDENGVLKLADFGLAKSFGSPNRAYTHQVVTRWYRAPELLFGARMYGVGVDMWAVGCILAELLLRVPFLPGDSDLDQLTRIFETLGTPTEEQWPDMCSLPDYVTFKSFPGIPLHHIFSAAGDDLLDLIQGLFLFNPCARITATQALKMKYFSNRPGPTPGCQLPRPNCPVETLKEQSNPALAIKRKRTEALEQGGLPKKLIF
CDK7/cyclinH/MAT1(h), sequence (P51946 whole entry partner): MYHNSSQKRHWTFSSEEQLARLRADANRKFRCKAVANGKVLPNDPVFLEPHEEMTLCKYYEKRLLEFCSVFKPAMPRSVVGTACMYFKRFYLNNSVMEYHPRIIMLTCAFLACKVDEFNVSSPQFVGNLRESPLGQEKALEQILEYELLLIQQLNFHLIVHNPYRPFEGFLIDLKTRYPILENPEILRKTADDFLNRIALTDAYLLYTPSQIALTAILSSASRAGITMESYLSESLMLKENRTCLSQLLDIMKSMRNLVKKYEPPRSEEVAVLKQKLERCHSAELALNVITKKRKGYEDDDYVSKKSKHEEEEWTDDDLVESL
CDK7/cyclinH/MAT1(h), sequence (P51948 whole entry partner): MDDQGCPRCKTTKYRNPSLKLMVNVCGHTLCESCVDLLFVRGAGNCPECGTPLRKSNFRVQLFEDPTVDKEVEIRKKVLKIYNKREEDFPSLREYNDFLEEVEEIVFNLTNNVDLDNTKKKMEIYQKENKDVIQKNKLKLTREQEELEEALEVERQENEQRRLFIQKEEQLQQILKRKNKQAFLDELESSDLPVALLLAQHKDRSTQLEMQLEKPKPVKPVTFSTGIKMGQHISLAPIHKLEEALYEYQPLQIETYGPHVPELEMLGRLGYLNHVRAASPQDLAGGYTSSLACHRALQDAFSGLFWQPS

For `Fc1ccc2ncnc(NCCc3ccc(Cl)cc3)c2c1` [5at, N-[2-(4-Chlorophenyl)Ethyl]-6-Fluoro-4-Quinazolinamine], the remaining activity at 10 µM turned out to be 108% at A-Raf(h) (setting [1]); 98% on Blk(m) (setting [1]); 59% on CDK7/cyclinH/MAT1(h) (setting [1]); 87% on GCK(h) (setting [1]); 90% at PI3 Kinase (p120g)(h) (setting [1]); 141% on PhKγ1(h) (setting [1]).

Consider `COc1ccc2ncnc(Nc3cccc(F)c3)c2c1` [5ay, N-(3-Fluorophenyl)-6-Methoxy-4-Quinazolinamine], for which the remaining activity at 10 µM came to 100% on A-Raf(h) (setting [2]); 102% at Blk(m) (setting [2]); 58% at CDK7/cyclinH/MAT1(h) (setting [2]); 60% at GCK(h) (setting [2]); 91% on PI3 Kinase (p120g)(h) (setting [2]); 121% at PhKγ1(h) (setting [2]).

Regarding `Fc1ccc(CCNc2ncnc3ccc(F)cc23)cc1` [5as, 6-Fluoro-N-[2-(4-Fluorophenyl)Ethyl]-4-Quinazolinamine], the remaining activity at 10 µM on A-Raf(h) (setting [3]) was 106%; at Blk(m) (setting [3]), 100%; on CDK7/cyclinH/MAT1(h) (setting [3]), 49%; at GCK(h) (setting [3]), 88%; on PI3 Kinase (p120g)(h) (setting [3]), 92%; on PhKγ1(h) (setting [3]) it was 120%.

For `Fc1ccc(CNc2ncnc3ccc(F)cc23)cc1` [5aa, 6-Fluoro-N-(4-fluorobenzyl)-4-Quinazolinamine], the remaining activity at 10 µM on A-Raf(h) (setting [4]) stood at 103%; at Blk(m) (setting [4]) it was 91%; at CDK7/cyclinH/MAT1(h) (setting [4]), 62%; at GCK(h) (setting [4]), 109%; on PI3 Kinase (p120g)(h) (setting [4]), 91%; on PhKγ1(h) (setting [4]), 102%.
